Measured values reported in PMC2862277 (The Journal of neuroscience : the official journal of the …, 2010).
Where “and” joins values, the source holds several entries; their conditions need not be identical. Equal values may be shown once. Read-outs that look alike come from different tables or passages of the source.

Tests used:
[1] = molecular target: NR1(Y692A)/NR2C (Rattus norvegicus, UniProt P35439+Q00961, Y692A); experiment: TEVC recording from Xenopus oocytes, mutant receptor; type: cell-based
[2] = molecular target: NR1/NR2A (Rattus norvegicus, UniProt P35439+Q00959); experiment: Two electrode voltage clamp recording from Xenopus laevis oocytes; type: cell-based; details: relative to maximal glycine (100 μM), 100 μM glutamate
[3] = molecular target: NR1/NR2B(E790A) (Rattus norvegicus, UniProt P35439+Q00960, E790A); experiment: TEVC recording from Xenopus oocytes, mutant receptor; type: cell-based
[4] = molecular target: T1, NR1/NR2C (Rattus norvegicus, UniProt P35439+Q00961); experiment: Least-squares fitting of Scheme 1a to macroscopic currents; type: cell-based
[5] = molecular target: NR1(E781A)/NR2C (Rattus norvegicus, UniProt P35439+Q00961, E781A); experiment: TEVC recording from Xenopus oocytes, mutant receptor; type: cell-based
[6] = molecular target: T1, NR1/NR2C; experiment: Single-channel recording from outside-out patches containing one active channel; type: cell-based
[7] = molecular target: NR1(R523A)/NR2B (Rattus norvegicus, UniProt P35439+Q00960, R523A); experiment: TEVC recording from Xenopus oocytes, mutant receptor; type: cell-based
[8] = molecular target: T1, NR1/NR2C; experiment: Maximum interval likelihood fitting of Scheme 1 to single channel data; type: cell-based
[9] = molecular target: T1, NR1/NR2C; experiment: Two electrode voltage clamp recording from Xenopus laevis oocytes; type: cell-based; details: NR1/NR2C; relative to maximal glycine (100 μM), 100 μM glutamate
[10] = molecular target: NR1(Y692A)/NR2D (Rattus norvegicus, UniProt P35439+Q62645, Y692A); experiment: TEVC recording from Xenopus oocytes, mutant receptor; type: cell-based
[11] = molecular target: NR1(E781A)/NR2B (Rattus norvegicus, UniProt P35439+Q00960, E781A); experiment: as above; type: cell-based
[12] = molecular target: NR1/NR2D (Rattus norvegicus, UniProt P35439+Q62645); experiment: Two electrode voltage clamp recording from Xenopus laevis oocytes; type: cell-based; details: relative to maximal glycine (100 μM), 100 μM glutamate
[13] = molecular target: NR1/NR2D(E791Q) (Rattus norvegicus, UniProt P35439+Q62645, E814Q); experiment: TEVC recording from Xenopus oocytes, mutant receptor; type: cell-based
[14] = molecular target: NR1/NR2C(R703A) (Rattus norvegicus, UniProt P35439+Q00961, R690A); experiment: as above; type: cell-based
[15] = molecular target: NR1/NR2C(S707N,R710P) (Rattus norvegicus, UniProt P35439+Q00961, R697P/S694N); experiment: as above; type: cell-based
[16] = molecular target: NR1(Y692A)/NR2A (Rattus norvegicus, UniProt P35439+Q00959, Y692A); experiment: as above; type: cell-based
[17] = molecular target: NR1(Y692A)/NR2B (Rattus norvegicus, UniProt P35439+Q00960, Y692A); experiment: as above; type: cell-based
[18] = molecular target: NR1/NR2C(Q800E) (Rattus norvegicus, UniProt P35439+Q00961, Q787E); experiment: as above; type: cell-based
[19] = molecular target: NR1/NR2C(Q800A) (Rattus norvegicus, UniProt P35439+Q00961, Q787A); experiment: as above; type: cell-based
[20] = molecular target: NR1/NR2B (Rattus norvegicus, UniProt P35439+Q00960); experiment: Two electrode voltage clamp recording from Xenopus laevis oocytes; type: cell-based; details: relative to maximal glycine (100 μM), 100 μM glutamate
[21] = molecular target: NR1/NR2B(R693A) (Rattus norvegicus, UniProt P35439+Q00960, R693A); experiment: TEVC recording from Xenopus oocytes, mutant receptor; type: cell-based
[22] = molecular target: NR1(R523A)/NR2C (Rattus norvegicus, UniProt P35439+Q00961, R523A); experiment: as above; type: cell-based
[23] = molecular target: NR1/NR2A(E798Q) (Rattus norvegicus, UniProt P35439+Q00959, E789Q); experiment: as above; type: cell-based
[24] = molecular target: NR1(R755A)/NR2C (Rattus norvegicus, UniProt P35439+Q00961, R755A); experiment: as above; type: cell-based
[25] = molecular target: NR1/NR2B(E790Q) (Rattus norvegicus, UniProt P35439+Q00960, E790Q); experiment: as above; type: cell-based
[26] = ref McBain et al., 1989; cited from earlier work
[27] = molecular target: T1, NR1/NR2C; type: cell-based
[28] = 1 mM agonist + 1 mM glutamate, 0.5 mM Ca2+
[29] = 1 mM agonist + 1 mM glutamate, 0.5 mM Ca2+, reversal potential assumed 0 mV
[30] = Figure 7B, paired recordings glycine vs DCS
[31] = average of 6 individually fitted patches
[32] = composite open time histogram from 6 patches
[33] = composite shut time histogram from 6 patches
[34] = representative recording from one patch (Figure 8B)
[35] = Table 2, Scheme I (Monte Carlo simulation of gating model)
[36] = this particular patch (Figure 8B), MIL fit Scheme 1
[37] = 1 s concentration jump from DCS into glutamate plus DCS

T1 sequence (Q00961 20-1237, other chains not shown): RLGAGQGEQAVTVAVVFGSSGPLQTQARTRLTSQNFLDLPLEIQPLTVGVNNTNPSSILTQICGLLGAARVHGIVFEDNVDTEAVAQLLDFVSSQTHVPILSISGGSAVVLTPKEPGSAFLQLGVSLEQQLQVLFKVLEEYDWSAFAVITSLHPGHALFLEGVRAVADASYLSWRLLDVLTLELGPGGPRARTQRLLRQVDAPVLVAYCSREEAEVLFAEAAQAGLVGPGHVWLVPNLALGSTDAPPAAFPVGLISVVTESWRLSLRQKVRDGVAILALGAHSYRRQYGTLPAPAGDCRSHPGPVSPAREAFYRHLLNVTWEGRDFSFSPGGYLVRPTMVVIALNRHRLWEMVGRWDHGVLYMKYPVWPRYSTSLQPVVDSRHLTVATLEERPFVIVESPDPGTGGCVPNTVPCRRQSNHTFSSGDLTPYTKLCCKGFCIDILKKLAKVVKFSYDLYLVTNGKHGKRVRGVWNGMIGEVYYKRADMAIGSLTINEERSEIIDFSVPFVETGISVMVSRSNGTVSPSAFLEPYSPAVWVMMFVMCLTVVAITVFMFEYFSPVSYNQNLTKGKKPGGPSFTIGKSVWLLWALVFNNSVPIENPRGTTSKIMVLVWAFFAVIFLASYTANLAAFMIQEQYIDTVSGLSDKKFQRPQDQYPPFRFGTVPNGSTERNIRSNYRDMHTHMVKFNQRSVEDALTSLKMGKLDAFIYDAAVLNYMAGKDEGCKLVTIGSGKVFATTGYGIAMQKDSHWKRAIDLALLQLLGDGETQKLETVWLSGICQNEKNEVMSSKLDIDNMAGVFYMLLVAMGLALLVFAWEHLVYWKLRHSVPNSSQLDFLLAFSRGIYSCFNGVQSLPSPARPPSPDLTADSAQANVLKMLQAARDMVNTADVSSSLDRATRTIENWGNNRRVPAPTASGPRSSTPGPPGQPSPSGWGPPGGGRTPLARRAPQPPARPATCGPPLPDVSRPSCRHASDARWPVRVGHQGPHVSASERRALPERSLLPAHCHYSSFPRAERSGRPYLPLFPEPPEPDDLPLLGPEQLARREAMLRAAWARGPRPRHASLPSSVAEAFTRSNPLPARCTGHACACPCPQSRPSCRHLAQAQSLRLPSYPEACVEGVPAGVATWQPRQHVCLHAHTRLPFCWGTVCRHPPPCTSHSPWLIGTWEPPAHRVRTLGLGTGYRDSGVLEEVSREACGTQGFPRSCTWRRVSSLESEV
Chain of NR1(R755A)/NR2C (Q00961 20-1237, other chains not shown): as above
Chain of NR1/NR2C(R703A) (Q00961 20-1237 R690A, other chains not shown): as the sequence (Q00961 20-1237, other chains not shown) above, with R671A counted along it
Chain of NR1/NR2C(Q800A) (Q00961 20-1237 Q787A, other chains not shown): as the sequence (Q00961 20-1237, other chains not shown) above, with Q768A counted along it
Chain of NR1/NR2B(E790A) (Q00960 27-1482 E790A, other chains not shown): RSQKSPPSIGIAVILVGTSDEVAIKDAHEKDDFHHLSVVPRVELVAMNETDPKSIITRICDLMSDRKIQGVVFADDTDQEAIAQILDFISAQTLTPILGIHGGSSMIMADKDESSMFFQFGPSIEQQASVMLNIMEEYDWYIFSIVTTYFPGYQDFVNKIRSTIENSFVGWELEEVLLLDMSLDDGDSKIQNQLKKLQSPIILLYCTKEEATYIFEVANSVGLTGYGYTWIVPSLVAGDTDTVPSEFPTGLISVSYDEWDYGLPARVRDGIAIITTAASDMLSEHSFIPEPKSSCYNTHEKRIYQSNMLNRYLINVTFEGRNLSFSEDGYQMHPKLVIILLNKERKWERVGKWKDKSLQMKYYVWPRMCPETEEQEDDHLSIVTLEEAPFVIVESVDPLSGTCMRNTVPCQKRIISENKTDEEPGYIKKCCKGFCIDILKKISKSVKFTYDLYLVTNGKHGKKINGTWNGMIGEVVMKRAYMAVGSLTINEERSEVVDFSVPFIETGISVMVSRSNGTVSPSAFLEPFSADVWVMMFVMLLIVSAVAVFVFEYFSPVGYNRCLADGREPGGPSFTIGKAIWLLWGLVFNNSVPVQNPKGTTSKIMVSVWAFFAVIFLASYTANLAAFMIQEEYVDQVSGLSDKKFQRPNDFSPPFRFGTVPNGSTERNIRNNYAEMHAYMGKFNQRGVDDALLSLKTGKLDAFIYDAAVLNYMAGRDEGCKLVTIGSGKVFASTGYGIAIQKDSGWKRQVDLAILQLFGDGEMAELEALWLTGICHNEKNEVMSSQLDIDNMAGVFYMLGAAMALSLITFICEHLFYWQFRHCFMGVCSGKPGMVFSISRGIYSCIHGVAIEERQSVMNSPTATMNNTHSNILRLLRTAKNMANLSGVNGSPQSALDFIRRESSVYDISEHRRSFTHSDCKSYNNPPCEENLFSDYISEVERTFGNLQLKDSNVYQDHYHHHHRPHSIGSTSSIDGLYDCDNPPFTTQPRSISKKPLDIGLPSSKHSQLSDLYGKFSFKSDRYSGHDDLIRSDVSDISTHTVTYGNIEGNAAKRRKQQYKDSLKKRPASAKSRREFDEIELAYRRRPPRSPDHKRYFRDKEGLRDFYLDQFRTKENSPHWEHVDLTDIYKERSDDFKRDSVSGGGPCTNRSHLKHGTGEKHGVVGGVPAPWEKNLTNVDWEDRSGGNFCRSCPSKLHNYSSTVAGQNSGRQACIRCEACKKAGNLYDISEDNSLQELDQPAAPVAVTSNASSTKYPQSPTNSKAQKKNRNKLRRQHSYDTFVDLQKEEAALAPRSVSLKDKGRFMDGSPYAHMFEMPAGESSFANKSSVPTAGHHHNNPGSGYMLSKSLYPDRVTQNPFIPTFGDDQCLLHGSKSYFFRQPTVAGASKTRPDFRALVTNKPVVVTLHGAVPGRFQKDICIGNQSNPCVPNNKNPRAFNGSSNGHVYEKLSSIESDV
Chain of NR1/NR2D(E791Q) (Q62645 28-1323 E814Q, other chains not shown): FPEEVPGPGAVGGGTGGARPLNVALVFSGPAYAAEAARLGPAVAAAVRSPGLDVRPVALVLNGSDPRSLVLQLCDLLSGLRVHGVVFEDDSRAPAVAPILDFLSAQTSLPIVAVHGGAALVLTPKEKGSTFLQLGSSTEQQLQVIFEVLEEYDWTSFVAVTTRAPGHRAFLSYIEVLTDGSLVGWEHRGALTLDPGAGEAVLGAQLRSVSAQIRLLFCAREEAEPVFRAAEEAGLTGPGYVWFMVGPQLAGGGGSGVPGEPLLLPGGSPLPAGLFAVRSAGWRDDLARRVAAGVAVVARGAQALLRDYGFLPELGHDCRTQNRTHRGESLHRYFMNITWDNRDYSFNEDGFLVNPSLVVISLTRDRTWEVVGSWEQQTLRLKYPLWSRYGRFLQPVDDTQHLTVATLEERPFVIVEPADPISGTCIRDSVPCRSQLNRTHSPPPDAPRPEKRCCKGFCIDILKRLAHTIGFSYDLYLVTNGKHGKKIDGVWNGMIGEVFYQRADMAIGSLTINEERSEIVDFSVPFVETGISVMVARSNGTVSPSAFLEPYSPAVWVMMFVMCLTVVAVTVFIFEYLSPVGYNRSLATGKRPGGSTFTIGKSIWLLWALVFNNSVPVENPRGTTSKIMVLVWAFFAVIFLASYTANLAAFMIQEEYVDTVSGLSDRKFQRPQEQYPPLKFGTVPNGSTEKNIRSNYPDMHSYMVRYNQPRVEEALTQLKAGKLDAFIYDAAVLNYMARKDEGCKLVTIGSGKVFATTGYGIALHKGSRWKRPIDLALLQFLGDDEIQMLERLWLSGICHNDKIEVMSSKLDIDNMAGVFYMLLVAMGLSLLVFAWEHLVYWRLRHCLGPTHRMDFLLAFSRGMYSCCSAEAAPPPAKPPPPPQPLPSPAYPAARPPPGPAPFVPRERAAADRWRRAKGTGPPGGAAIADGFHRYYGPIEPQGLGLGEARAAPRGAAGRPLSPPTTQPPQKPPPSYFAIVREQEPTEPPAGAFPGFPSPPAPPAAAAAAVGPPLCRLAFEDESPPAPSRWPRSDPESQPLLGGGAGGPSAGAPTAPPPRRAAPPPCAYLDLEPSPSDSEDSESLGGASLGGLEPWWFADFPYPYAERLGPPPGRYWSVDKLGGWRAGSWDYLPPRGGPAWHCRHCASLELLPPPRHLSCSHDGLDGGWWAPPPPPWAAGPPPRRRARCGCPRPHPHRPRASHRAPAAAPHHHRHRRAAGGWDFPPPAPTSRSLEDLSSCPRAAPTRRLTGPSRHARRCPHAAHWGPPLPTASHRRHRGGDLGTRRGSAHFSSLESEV
Chain of NR1/NR2C(Q800E) (Q00961 20-1237 Q787E, other chains not shown): as the sequence (Q00961 20-1237, other chains not shown) above, with Q768E counted along it
Chain of NR1/NR2C(S707N,R710P) (Q00961 20-1237 S694N/R697P, other chains not shown): as the sequence (Q00961 20-1237, other chains not shown) above, with S675N, R678P counted along it
Chain of NR1(Y692A)/NR2C (Q00961 20-1237, other chains not shown): as the sequence (Q00961 20-1237, other chains not shown) above
Chain of NR1(E781A)/NR2C (Q00961 20-1237, other chains not shown): as above
Chain of NR1(R523A)/NR2C (Q00961 20-1237, other chains not shown): as above
Chain of NR1/NR2D (Q62645 28-1323, other chains not shown): as the sequence (Q62645 28-1323 E814Q, other chains not shown) above, with Q787E counted along it
Chain of NR1(Y692A)/NR2D (Q62645 28-1323, other chains not shown): as the sequence (Q62645 28-1323 E814Q, other chains not shown) above, with Q787E counted along it

N[C@@H]1CON=C1O [DCS, D-cycloserine]
DCS Efficacy (% glycine) [1]: 59 ± 2 % glycine
DCS Efficacy (% glycine) [2]: 90 ± 2 % glycine
DCS Efficacy (% glycine) [3]: 68 ± 3 % glycine
Deactivation ([4]; Scheme Ia): 245 ms
Desensitization (τ1) ([4]; Scheme Ia): 15 ms
Desensitization (τ2) ([4]; Scheme Ia): 130 ms
Peak Po ([4]; Scheme Ia): 0.042
Rise time ([4]; Scheme Ia): 2.4 ms
Steady state Po ([4]; Scheme Ia): 0.030
Residual (normalized residual sum of squares) ([4]; Scheme Ia macroscopic fit): 2.67 × 10^−3
d1+ ([4]; Scheme Ia macroscopic fit): 1.4 s⁻¹
d1− ([4]; Scheme Ia macroscopic fit): 5.7 s⁻¹
d2+ ([4]; Scheme Ia macroscopic fit): 6.7 s⁻¹
d2− ([4]; Scheme Ia macroscopic fit): 16 s⁻¹
b+ (agonist binding rate) ([4]; glutamate binding step, Scheme Ia, with the labelled NR1 agonist): 560000 M⁻¹ s⁻¹
b− (unbinding rate) ([4]; glutamate unbinding step, Scheme Ia, with the labelled NR1 agonist): 3.4 s⁻¹
DCS Efficacy (% glycine) [5]: 150 ± 10 % glycine
area of larger conductance level [6, 28]: 72 ± 8%
area of smaller conductance level [6, 28]: 28 ± 5%
conductance level (larger) [6, 29]: 45 ± 5 pS
conductance level (smaller) [6, 29]: 28 ± 3 pS
mean duration of all open periods ([6]; 1 mM agonist + 1 mM glutamate, 6 one-channel patches): 0.61 ± 0.06 ms
open probability (Po) ([6]; 1 mM agonist + 1 mM glutamate, patches with a single active channel): 0.029 ± 0.006
mean open time, % of control (glycine) ([6]; DCS vs glycine, paired patches): 132%
open probability, % of control (glycine) ([6]; DCS vs glycine, paired patches): 163%
mean open time increased by, in the presence of DCS [6, 30]: 131 ± 4%
open probability increased by, in the presence of DCS [6, 30]: 194 ± 33%
MOT (mean open time) ([6]; Table 2, Experimental): 0.57 ms
Steady state Po ([6]; Table 3, Experimental): 0.028
area of shut τ2 [6, 31]: 10%
area of shut τ3 [6, 31]: 30%
area of shut τ4 [6, 31]: 36%
area of shut τ5 [6, 31]: 5%
shut time constant τ1 [6, 31]: 0.04 ± 0.005 ms
shut time constant τ2 [6, 31]: 0.55 ± 0.16 ms
shut time constant τ3 [6, 31]: 8.5 ± 1.2 ms
shut time constant τ4 [6, 31]: 34 ± 4 ms
shut time constant τ5 [6, 31]: 220 ± 79 ms
area of open time τ1 [6, 32]: 49%
area of open time τ2 [6, 32]: 51%
open time constant τ1 [6, 32]: 0.32 ms
open time constant τ2 [6, 32]: 0.76 ms
area of shut τ2 [6, 33]: 10%
area of shut τ3 [6, 33]: 36%
area of shut τ4 [6, 33]: 32%
area of shut τ5 [6, 33]: 3%
shut time constant τ1 [6, 33]: 0.037 ms
shut time constant τ2 [6, 33]: 0.48 ms
shut time constant τ3 [6, 33]: 9.5 ms
shut time constant τ4 [6, 33]: 36 ms
shut time constant τ5 [6, 33]: 248 ms
apparent mean open time [6, 34]: 0.52 ms
open probability [6, 34]: 0.026
DCS Efficacy (% glycine) [7]: 31±2 % glycine
d1+ ([8]; MIL fit Scheme 1, six patches): 1.2 ± 0.4 s⁻¹
d1− ([8]; MIL fit Scheme 1, six patches): 4.2 ± 1.0 s⁻¹
d2+ ([8]; MIL fit Scheme 1, six patches): 25 ± 8 s⁻¹
d2− ([8]; MIL fit Scheme 1, six patches): 38 ± 7 s⁻¹
k1+ ([8]; MIL fit Scheme 1, six patches): 420 ± 80 s⁻¹
k1− ([8]; MIL fit Scheme 1, six patches): 1270 ± 340 s⁻¹
k2+ (forward rate of the fast gating step) ([8]; MIL fit Scheme 1, six patches): 1395 ± 215 s^−1 and 1395± 215 ^* s^−1
k2− ([8]; MIL fit Scheme 1, six patches): 17510 ± 2135 s⁻¹
k3+ ([8]; MIL fit Scheme 1, six patches): 4795 ± 815 s⁻¹
k3− (closing rate) ([8]; MIL fit Scheme 1, six patches): 2150 ± 210 s^−1 and 2150 ± 210 ^* s^−1
k4+ ([8]; MIL fit Scheme 1, six patches): 75 ± 35 s⁻¹
k4− ([8]; MIL fit Scheme 1, six patches): 1070 ± 130 s⁻¹
MOT (mean open time) [8, 35]: 0.61 ms
Po [8, 35]: 0.029
LL/event (log likelihood per event) ([8]; goodness of MIL fit of Scheme 1): 4.86 ± 0.05
rate constant k2+ [8, 36]: 2150 s⁻¹
rate constant k3− [8, 36]: 2388 s⁻¹
DCS Efficacy (% glycine) [9]: 190 ± 6 % glycine and 190 % glycine
DCS Efficacy (% glycine) [10]: 75 ± 1 % glycine
DCS Efficacy (% glycine) [11]: 10 ± 1 % glycine
DCS Efficacy (% glycine) [12]: 94 ± 2 % glycine
DCS Efficacy (% glycine) [13]: 110 ± 1 % glycine
DCS Efficacy (% glycine) [14]: 190 ± 4 % glycine
DCS Efficacy (% glycine) [15]: 190 ± 7 % glycine
DCS Efficacy (% glycine) [16]: 77 ± 1 % glycine
DCS Efficacy (% glycine) [17]: 46 ± 1 % glycine
DCS Efficacy (% glycine) [18]: 130 ± 4 % glycine
DCS Efficacy (% glycine) [19]: 191 ± 7 % glycine
DCS Efficacy (% glycine) [20]: 65 ± 2 % glycine
DCS Efficacy (% glycine) [21]: 68 ± 3 % glycine
DCS Efficacy (% glycine) [22]: 254±20 % glycine
DCS Efficacy (% glycine) [23]: 90 ± 2 % glycine
DCS Efficacy (% glycine) [24]: 100 % glycine and 100 ± 5 % glycine
DCS Efficacy (% glycine) [25]: 78 ± 1 % glycine
pKa for exocyclic amine [26]: 7.5
pKa for the exocyclic oxygen [26]: 4.5
Rise time [27, 37]: 3.8 ± 0.7 ms
glutamate deactivation time course [27, 37]: 242 ± 50 ms
Deactivation ([27]; Table 3, Experimental): 130 to 160 ms
Desensitization (τ1) ([27]; Table 3, Experimental): 32 ms
Desensitization (τ2) ([27]; Table 3, Experimental): 540 ms
Rise time ([27]; Table 3, Experimental): 3.1 to 4.9 ms
